Where two headings read alike, the source gives them in different places.
What was measured:
Assay type in all cases: cell-based
A. calcoaceticus = test system: A. calcoaceticus
E. cloacae = test system: E. cloacae
E. coli = test system: E. coli
E. faecalis = test system: E. faecalis
K. pneumoniae = test system: K. pneumoniae
P. aeruginosa = test system: P. aeruginosa
S. aureus = test system: S. aureus
S. epidermidis = test system: S. epidermidis
S. maltophilia = test system: S. maltophilia
S. marcescens = test system: S. marcescens

Row | Sequence | MIC (A. calcoaceticus; A. calcoaceticus AC002) | MIC (E. cloacae; E. cloacae ECL007) | MIC (E. coli; E. coli ECO005) | MIC (E. faecalis; E. faecalis EFS001) | MIC (E. faecalis; E. faecalis EFS008) | MIC (K. pneumoniae; K. pneumoniae KP001) | MIC (P. aeruginosa; P. aeruginosa PA004) | MIC (S. aureus; S. aureus SA014) | MIC (S. aureus; S. aureus SA093) | MIC (S. epidermidis; S. epidermidis SE010) | MIC (S. maltophilia; S. maltophilia SMA002) | MIC (S. marcescens; S. marcescens SMS003) | other results
1 | RWWWPWRRK [MBI 11G28CN] | 2 µg/mL | >128 µg/mL | 8 µg/mL | 4 µg/mL | 32 µg/mL | 64 µg/mL | 128 µg/mL | 4 µg/mL | 1 µg/mL | 4 µg/mL | 32 µg/mL | >128 µg/mL | –
2 | ILKKNPNNPNRK [MBI 11B4ACN] | – | – | – | – | – | – | – | – | – | – | – | – | MIC (A. calcoaceticus; A. calcoaceticus strain AC002): 4 µg/mL; MIC (E. cloacae; E. cloacae strain ECL007): >128 µg/mL; MIC (E. coli; E. coli strain ECO005): 32 µg/mL; MIC (E. faecalis; E. faecalis strain EFS008): 64 µg/mL; MIC (K. pneumoniae; K. pneumoniae strain KP001): 32 µg/mL; MIC (P. aeruginosa; P. aeruginosa strain PA004): >128 µg/mL; MIC (S. aureus; S. aureus strain SA008): 1 µg/mL; MIC (S. epidermidis; S. epidermidis strain SE010): 8 µg/mL; MIC (S. maltophilia; S. maltophilia strain SMA002): 64 µg/mL; MIC (S. marcescens; S. marcescens strain SMS003): >128 µg/mL
3 | WPWWPWRRK [MBI 11G27CN] | 2 µg/mL | >128 µg/mL | 16 µg/mL | 8 µg/mL | 32 µg/mL | 32 µg/mL | 128 µg/mL | 4 µg/mL | 1 µg/mL | 8 µg/mL | 32 µg/mL | >128 µg/mL | –
4 | ILRWAWWPWRRK [MBI 11H05CN] | 4 µg/mL | >128 µg/mL | 8 µg/mL | 2 µg/mL | 8 µg/mL | 8 µg/mL | 128 µg/mL | 2 µg/mL | 1 µg/mL | 4 µg/mL | 16 µg/mL | >128 µg/mL | –
5 | KRRWVWWVWRLI [MBI 11F4CNR] | – | – | – | – | – | – | – | – | – | – | – | – | MIC (A. calcoaceticus; A. calcoaceticus strain AC002): 16 µg/mL; MIC (E. cloacae; E. cloacae strain ECL007): 32 µg/mL; MIC (E. coli; E. coli strain ECO005): 32 µg/mL; MIC (E. faecalis; E. faecalis strain EFS008): 32 µg/mL; MIC (K. pneumoniae; K. pneumoniae strain KP001): 32 µg/mL; MIC (P. aeruginosa; P. aeruginosa strain PA004): 64 µg/mL; MIC (S. aureus; S. aureus strain SA093): 8 µg/mL; MIC (S. epidermidis; S. epidermidis strain SE010): 8 µg/mL; MIC (S. maltophilia; S. maltophilia strain SMA002): 32 µg/mL; MIC (S. marcescens; S. marcescens strain SMS003): >128 µg/mL
6 | ILAWPWWPWRRK [MBI 11H03CN] | 8 µg/mL | >128 µg/mL | 16 µg/mL | 2 µg/mL | 8 µg/mL | 16 µg/mL | >128 µg/mL | 2 µg/mL | 2 µg/mL | 4 µg/mL | 64 µg/mL | >128 µg/mL | –
7 | LWPWWPWRRK [MBI 11G24CN] | 4 µg/mL | >128 µg/mL | 16 µg/mL | 2 µg/mL | 8 µg/mL | 16 µg/mL | 128 µg/mL | 2 µg/mL | 1 µg/mL | 4 µg/mL | 32 µg/mL | >128 µg/mL | –
8 | ILRWPAWPWRRK [MBI 11H06CN] | 8 µg/mL | >128 µg/mL | 16 µg/mL | 2 µg/mL | 16 µg/mL | 64 µg/mL | >128 µg/mL | 8 µg/mL | 1 µg/mL | 8 µg/mL | 64 µg/mL | >128 µg/mL | –
